Common to all, as to assay type: in vivo
The subject of data set [1] is Varroa destructor. Put plainly: Test Example 1: pest control test of Varroa destructor, preventive value. The conditions noted are these: application dose 10 μg, Varroa destructor on adult Apis mellifera, 48 hours after treatment. As to the method: (§1) After anesthesized with carbonic acid gas, adults of Apis mellifera infected with Varroa destructor were subjected to a chemical treatment by applying the abdomens with an acetone solution of the compound according to the present invention at predetermined concentrations using a micro applicator. After the treatment, Apis mellifera were transferred into a plastic case and left to stand in a thermostatic chamber under dark at 25° C. During the test period, 50% sucrose water absorbed to absorbent cotton was provided as a bait.
(§2) Forty eight hours after the chemical treatment, the number of Apis mellifera survived and the number of parasitic Varroa destructor were examined. The mortality of the honeybees and the preventive value against Varroa destructor were calculated by the following equations. Mortality(%)={((100−survival rate in chemical treated plot)−(100−survival rate in acetone treated plot))/(100−mortality in acetone treated plot)}×100 Preventive value={(parasitism rate in untreated plot−parasitism rate in chemical treated plot)/(parasitism rate in untreated plot)}×100

In data set [2] the test system is Apis mellifera. Put plainly: Test Example 1: mortality of honeybees after topical application (micro applicator). As to conditions: acetone solution applied to abdomens of adult Apis mellifera infected with Varroa destructor, 48 hours after treatment. As to the method:
as §1, §2

Data set [3] has as its system Varroa destructor. Put plainly: Test Example 2: pest control test of Varroa destructor, parasitism rate. The conditions noted are these: for Parasitism rate before treatment (%): rate 10 ppm group, before chemical treatment (baseline); for Parasitism rate at 72 hours after treatment (%) / Change in parasitism rate (%)*: rate 10 ppm; for Parasitism rate at 72 hours after treatment (%): abdomens dipped; for Change in parasitism rate (%)*: {100 − (parasitism rate at 72 hours after treatment/parasitism rate before treatment) × 100}. The source says:
(§3) After anesthesized with carbonic acid gas, adults of Apis mellifera collected from a hive were grouped in test cages such that there were 10 to 20 heads per cage. Thereafter, the Apis mellifera were subjected to a chemical treatment by dipping the abdomens into an acetone solution of the compound according to the present invention at predetermined concentrations. After the Apis mellifera air-dried, the recovery of the Apis mellifera from the anesthesia was confirmed. Then, the cages were lidded to leave the Apis mellifera to stand in a thermostatic chamber under dark at 25° C. Note that 50% sucrose water absorbed to absorbent cotton was provided as a bait during the test period.
(§4) The number of Apis mellifera survived at 72 hours after the chemical treatment as well as the numbers of Varroa destructor parasitizing the Apis mellifera before the chemical treatment and at 72 hours after the chemical treatment were examined. The mortality and the parasitism rate were calculated by the following equations. The test was conducted in duplicate. Mortality(%)={((100−survival rate in chemical treated plot)−(100−survival rate in acetone treated plot))/(100−mortalityin acetone treated plot)}×100 Parasitism rate(%)=(number of heads of honeybees parasitized by Varroa destructor/number of honeybees survived)×100

Data set [4] has as its system Apis mellifera. Put plainly: Test Example 2: mortality of honeybees after dipping the abdomens. As to conditions: rate 10 ppm, abdomens dipped into acetone solution, adult Apis mellifera.
Description: as §3, §4

SMILES strings stand for the structures.

Consider `O=C(N=c1ccccn1Cc1ccc(Cl)nc1)C(F)(F)F` [Compound P212, N-[1-((6-chloropyridin-3-yl)methyl)pyridin-2(1H)-ylidene]-2,2,2-trifluoroacetamide], for which the Preventive value in the data set with Varroa destructor [1] came to 100. For the same compound, the “Mortality (%)” value in the data set on Apis mellifera [2] (application dose 10 μg) is given as 0%. Also, in the data set on Varroa destructor [3], the “Parasitism rate before treatment (%)” value was 17%, the “Parasitism rate at 72 hours after treatment (%)” value is 10% and the “Change in parasitism rate (%)*” value is recorded as −41%. The “Mortality at 72 hours after treatment (%)” value with Apis mellifera [4] is 0%.
As to `CC(C)[C@H](Nc1ccc(C(F)(F)F)cc1Cl)C(=O)OC(C#N)c1cccc(Oc2ccccc2)c1` (some centres unmarked) [Fluvalinate, reference compound], the “Mortality (%)” value in the data set on Apis mellifera [2] (application dose 5 μg) amounted to 64%.
In the case of `FC(F)(F)C(=S)N=c1ccccn1Cc1ccc(Cl)nc1` [Compound 1-20, N-[1-((6-chloropyridin-3-yl)methyl)pyridin-2(1H)-ylidene]-2,2,2-trifluoroethanethioamide], in the data set with Varroa destructor [3], the “Parasitism rate before treatment (%)” value was found to be 51%, the “Parasitism rate at 72 hours after treatment (%)” value is recorded as 23% and the “Change in parasitism rate (%)*” value is −55%. The “Mortality at 72 hours after treatment (%)” value in the data set on Apis mellifera [4] came to 0%.

These data come from patent publication US9066517B2, “Pest control agents for honeybee parasitic pests, and pest control method for honeybee parasitic pests using the pest control agents” (MEIJI SEIKA PHARMA CO., LTD., priority 2013, dated 2015).
